Marks after values point to notes of the source that are not given here.
Key:
[1] = tested on: male mice (ICR); assay: Muscle relaxation: endurance time on rotarod rotating at accelerated speed; type: in vivo; conditions: Mus musculus, ip; intraperitoneal, at time of maximum effect; 50% of activity vs vehicle only; read-out: MR test ED50, I = Acc. Rotarod
Procedure: (§1) For testing, male mice (ICR) were purchased from ORIENT BIO INC. (Korea), divided into several groups with 6 mice in each group, and were adapted for 4-5 days. The mice having the weight ranging from 19 g to 26 g were employed for the test. The pharmacological effect of the test compounds on muscle relaxation was evaluated by Rotarod test, grip strength test, and muscular force (wire hang) test. All mice were adapted to the test environment at one hour before starting the tests. The pharmacological effects of all the test compounds were evaluated by administration through peritoneal cavity of the mice (10 ul/g, bw).
At 24 hours before testing, the mice to be tested were preliminarily trained for 5 minutes on a rod rotating at the rate of 6 revolutions per a minute. The pharmacological effect on muscle relaxation of the test compounds were evaluated by observing the mice on a rod for 5 minutes, where the rod was accelerated from 4 to 40 revolutions per a minute during the test time. The endurance time that each mouse endures on the acceleratedly rotated rod without falling off from the rod was recorded. As test time for evaluation, a maximum of 5 minutes was applied. […] This experimentation was conducted according to the method described in the reference, ‘Monville et al. (2006) Comparison of incremental and accelerating protocol of the rotarod test for the assessment of motor deficits in the 6-OHDA model. J. Neurosci. Meth. 158: 219-223’.
(§2) The results of muscle relaxation activity of the phenyl carbamate compounds measured in above Experimental Examples 11.2 to 11.5 are shown in following Table 5.

[2] = tested on: male mice (ICR); assay: Muscle relaxation: residence time on rotarod rotating at fixed speed (15 r.p.m.); type: in vivo; conditions: Mus musculus, ip, read-out: MR test ED50, II = Fixed 15 r.p.m. Rotarod
[3] = tested on: male mice (ICR); assay: Muscle relaxation: grip strength; type: in vivo; conditions: intraperitoneal; for ED50: Mus musculus, ip, at time of maximum effect, 50% of activity vs vehicle only, read-out: MR test ED50, III = Grip strength
Procedure: as §1
A grip strength test using the test animals' forelimbs was performed using an instrument equipped with triangle ring and designed so as to easily grip with the forelimbs of experimental animals, manufactured from Ugo Basile Inc. (Ugo Basile, Model47106, Italy). The test was conducted before and after administration of the compounds to evaluate the effects thereof. […] The mouse was made to grip the rod with its forelimbs, and its tail was pulled, where the force at which the mouse detached from the rod was recorded. The instrument indicated the force in grams. All of the mice were given […] for test, and the 3 highest values among the test opportunities were selected and the mean value was used as the test result. This experimentation was conducted according to the method described in the reference, ‘Nevins et al. (1993) Quantitative grip strength assessment as a means of evaluating muscle relaxation in mice. Psychopharmacol. 110: 92-96’.
as §2

[4] = tested on: male mice (ICR); assay: Muscle relaxation: wire hang; type: in vivo; conditions: intraperitoneal; for ED50: Mus musculus, at time of maximum effect, 50% of activity vs vehicle only, read-out: MR test ED50, IV = Wire hang; for IV = Wire hang, effect (%) compared to control treated with vehicle only: concentration administered 100 mg/kg
Procedure: as §1
This experimentation was conducted using a metal wire of 30 cm in length, which was suspended between two pillars at a height of about 40 cm from the bottom covered with a soft pad. […] Each mouse was made to grip the wire using two forelimbs, and the elapse time before the mouse fell off from the wire to the pad on the bottom was recorded in seconds. Each mouse was given 5 opportunities for this test at an interval of 2 minutes period. The highest 3 records among the test opportunities were selected and the mean value was used as the test result. This experimentation was conducted according to the method described in the reference, ‘Jacqueline N. Crawley (1999) Behavioral phenotyping of transgenic and knockout mice: experimental design and evaluation of general health, sensory functions, motor abilities, and specific behavioral tests. Brain Res. 835: 18-26’.
as §2

[5] = tested on: male ICR mice; assay: MES (Maximal Electroshock Seizure) test in mice; conditions: Mus musculus, po; for ED50: read-out: MES test (po) ED50
[6] = intraperitoneal, at time of maximum effect, 50% of activity vs vehicle only
[7] = read-out: MES test (po) Protection %

Row | Structure (SMILES) | ED50 [1] | ED50 [2, 6] | ED50 [3] | ED50 [4] | responders at 200 mg/kg [5, 7] | other results
1 | C[C@@H](OC(=O)NC1CC1)[C@H](O)c1ccccc1Cl (single isomer, unassigned) [Compound 25] | 30 mg/kg | 18.3 mg/kg | 46.1 mg/kg | 32.9 mg/kg | 25% | –
2 | C[C@H](OC(N)=O)[C@@H](O)c1ccccc1I [Compound 65, 1-(2-iodophenyl)-(S)-1-hydroxypropyl-(S)-2-carbamate] | – | – | 42.9 mg/kg | 23.4 mg/kg | – | ED50 [2]: 28 mg/kg
3 | C[C@@H](OC(N)=O)[C@H](O)c1ccccc1Cl [Compound 2, 1-(2-chlorophenyl)-(R)-1-hydroxypropyl-(R)-2-carbamate] | 66.3 mg/kg | 76.5 mg/kg | 110 mg/kg | 43.3 mg/kg | – | ED50 [5]: 51 mg/kg
4 | C[C@H](OC(=O)NC1CC1)[C@@H](O)c1ccccc1Cl [Compound 18, 1-(2-chlorophenyl)-(S)-1-hydroxypropyl-(R)-2-N-cyclopropylcarbamate] | 59.2 mg/kg | 61.2 mg/kg | 87.4 mg/kg | 29.5 mg/kg | 100% | –
5 | CC(OC(=O)NC1CC1)C(O)c1ccccc1Cl (racemic) [Compound 32, 1-(2-chlorophenyl)-1-hydroxypropyl-2-N-cyclopropylcarbamate] | – | – | 45.2 mg/kg | 36.6 mg/kg | 100% | –
6 | CNC(=O)O[C@H](C)[C@H](O)c1ccccc1Cl [Compound 22, 1-(2-chlorophenyl)-(R)-1-hydroxypropyl-(R)-2-N-methylcarbamate] | 25.7 mg/kg | 25.1 mg/kg | 28.3 mg/kg | 22.4 mg/kg | – | –
7 | CC(C)NC(=O)O[C@H](C)[C@H](O)c1ccccc1Cl [Compound 24, 1-(2-chlorophenyl)-(R)-1-hydroxypropyl-(R)-2-N-isopropylcarbamate] | 38.6 mg/kg | 44.3 mg/kg | 48.8 mg/kg | 17.8 mg/kg | – | –
8 | CCCNC(=O)O[C@H](C)[C@H](O)c1ccccc1Cl [Compound 23, 1-(2-chlorophenyl)-(R)-1-hydroxypropyl-(R)-2-N-propylcarbamate] | – | – | 73.8 mg/kg | 46 mg/kg | 25% | –
9 | CC(C)C(OC(N)=O)C(O)c1ccccc1Cl (racemic) [Compound 11, 1-(2-chlorophenyl)-1-hydroxy-3-methyl-butyl-2-carbamate] | 102 mg/kg | – | 126 mg/kg | – | – | –
10 | CC(C)NC(=O)OC(C)C(O)c1ccccc1Cl (racemic) [Compound 31, 1-(2-chlorophenyl)-1-hydroxypropyl-2-N-isopropylcarbamate] | – | – | 50.4 mg/kg | 52.1 mg/kg | 25% | –
11 | CC[C@H](OC(N)=O)[C@@H](O)c1ccccc1Cl [Compound 6, 1-(2-chlorophenyl)-(S)-1-hydroxybutyl-(S)-2-carbamate] | – | – | 70.7 mg/kg | – | – | –
12 | C[C@H](OC(=O)NC1CCCCC1)[C@@H](O)c1ccccc1Cl [Compound 19, 1-(2-chlorophenyl)-(S)-1-hydroxypropyl-(R)-2-N-cyclohexyl carbamate] | 95.3 mg/kg | – | 110 mg/kg | 28.5 mg/kg | – | –
13 | CC(OC(N)=O)C(O)c1ccccc1Cl (racemic) [Compound 3, 1-(2-chlorophenyl)-1-hydroxypropyl-2-carbamate] | 57.1 mg/kg | 47.7 mg/kg | 72.6 mg/kg | 34 mg/kg | – | ED50 [5]: 31.4 mg/kg
14 | CC(C)[C@H](OC(N)=O)[C@@H](O)c1ccccc1Cl [Compound 9, 1-(2-chlorophenyl)-(S)-1-hydroxy-3-methyl-butyl-(S)-2-carbamate] | – | – | 104 mg/kg | – | – | –
15 | C[C@@H](OC(N)=O)[C@H](O)c1ccccc1I [Compound 66, 1-(2-iodophenyl)-(R)-1-hydroxypropyl-(R)-2-carbamate] | – | – | 46 mg/kg | 76.3 mg/kg | – | ED50 [2]: 67.9 mg/kg
16 | CC[C@@H](OC(N)=O)[C@H](O)c1ccccc1Cl [Compound 7, 1-(2-chlorophenyl)-(R)-1-hydroxybtyl-(R)-2-carbamate] | – | – | 248 mg/kg | – | – | –
17 | C[C@@H](OC(N)=O)[C@H](O)c1ccccc1F [Compound 64, 1-(2-fluorophenyl)-(R)-1-hydroxypropyl-(R)-2-carbamate] | – | – | – | – | – | III = Grip strength, effect (%) compared to control treated with vehicle only ([3]; concentration administered 120 mg/kg): 120^a (35.4%); IV = Wire hang, effect (%) compared to control treated with vehicle only [4]: 100^a (30.8%)
18 | CC(C)NC(=O)O[C@@H](C)[C@@H](O)c1ccccc1Cl [Compound 17, 1-(2-chlorophenyl)-(S)-1-hydroxypropyl-(R)-2-N-isopropylcarbamate] | 73.1 mg/kg | 66.4 mg/kg | 91.5 mg/kg | 41.4 mg/kg | – | –
19 | C[C@@H](OC(N)=O)[C@H](O)c1ccc(Cl)cc1Cl [Compound 45, 1-(2,4-dichlorophenyl)-(R)-1-hydroxypropyl-(R)-2-carbamate] | – | – | – | – | 0% | –
20 | CCCNC(=O)OC(C)C(O)c1ccccc1Cl (racemic) [Compound 30, 1-(2-chlorophenyl)-1-hydroxypropyl-2-N-propylcarbamate] | – | – | 65.4 mg/kg | 31.7 mg/kg | 25% | –
21 | CC[C@H](OC(N)=O)[C@@H](O)c1ccccc1I [Compound 67, 1-(2-iodophenyl)-(S)-1-hydroxybutyl-(S)-2-carbamate] | – | – | 69.1 mg/kg | 26.2 mg/kg | – | ED50 [2]: 30.2 mg/kg
22 | C[C@@H](OC(=O)NC1CCCCC1)[C@H](O)c1ccccc1Cl [Compound 26, 1-(2-chlorophenyl)-(R)-1-hydroxypropyl-(R)-2-N-cyclohexyl carbamate] | – | – | – | 63.8 mg/kg | – | –
23 | C[C@H](OC(N)=O)[C@H](O)c1ccccc1Cl [Compound 5, 1-(2-chlorophenyl)-(R)-1-hydroxypropyl-(S)-2-carbamate] | 66.9 mg/kg | 65.5 mg/kg | 95 mg/kg | 52.5 mg/kg | – | ED50 [5]: 84.1 mg/kg
24 | CCCNC(=O)O[C@@H](C)[C@@H](O)c1ccccc1Cl [Compound 16, 1-(2-chlorophenyl)-(S)-1-hydroxypropyl-(S)-2-N-propylcarbamate] | 48.7 mg/kg | 61.6 mg/kg | 67.8 mg/kg | 16.1 mg/kg | 25% | –
25 | CC(OC(=O)NC1CCCCC1)C(O)c1ccccc1Cl (racemic) [Compound 33, 1-(2-chlorophenyl)-1-hydroxypropyl-2-N-cyclohexylcarbamate] | – | – | – | 74.6 mg/kg | – | –
26 | CNC(=O)OC(C)C(O)c1ccccc1Cl (racemic) [Compound 29, 1-(2-chlorophenyl)-1-hydroxypropyl-2-N-methylcarbamate] | 30.2 mg/kg | 41 mg/kg | 46 mg/kg | 38 mg/kg | 75% | –
27 | C[C@H](OC(N)=O)[C@@H](O)c1ccccc1F [Compound 63, 1-(2-fluorophenyl)-(S)-1-hydroxypropyl-(S)-2-carbamate] | – | – | 118 mg/kg | – | – | IV = Wire hang, effect (%) compared to control treated with vehicle only [4]: 100^a (84.2%)
28 | CCC(OC(N)=O)C(O)c1ccccc1Cl (racemic) [Compound 8, 1-(2-chlorophenyl)-1-hydroxybutyl-2-carbamate] | 50.6 mg/kg | – | 69.5 mg/kg | – | – | –
29 | CNC(=O)O[C@@H](C)[C@@H](O)c1ccccc1Cl [Compound 15, 1-(2-chlorophenyl)-(S)-1-hydroxypropyl-(S)-2-N-methylcarbamate] | 51.4 mg/kg | 42.8 mg/kg | 83.6 mg/kg | 25.4 mg/kg | – | responders at 100 mg/kg [5, 7]: 75%

Source: patent US20130184338A1, “PHENYLPROPYL CARBAMATE DERIVATIVES FOR USE IN PREVENTING OR TREATING MULTIPLE SCLEROSIS” (Bio-Pharm Solutions Co., Ltd., priority 2011, published 2013)
